Assay results as given in US9856245B2, “GPR40 agonists for the treatment of type II diabetes” (Janssen Pharmaceutica NV, priority 2015, dated 2018).
Where “and” joins values, the source holds several entries; their conditions need not be identical. Identical values can stand only once.

molecular target: T1, human GPR40 (Homo sapiens, UniProt O14842); experiment: GPR40 calcium flux assay (hGPR40 Ca2+ Assay); format: cell-based; details: transfected HEK293 cells stably expressing human GPR40; Fluo 8 calcium dye; multiple values = repeated testing; read-out: hGPR40 Ca^2+ Assay EC50
T1 construct: expressed in transfected cells
T1 sequence (O14842 whole entry): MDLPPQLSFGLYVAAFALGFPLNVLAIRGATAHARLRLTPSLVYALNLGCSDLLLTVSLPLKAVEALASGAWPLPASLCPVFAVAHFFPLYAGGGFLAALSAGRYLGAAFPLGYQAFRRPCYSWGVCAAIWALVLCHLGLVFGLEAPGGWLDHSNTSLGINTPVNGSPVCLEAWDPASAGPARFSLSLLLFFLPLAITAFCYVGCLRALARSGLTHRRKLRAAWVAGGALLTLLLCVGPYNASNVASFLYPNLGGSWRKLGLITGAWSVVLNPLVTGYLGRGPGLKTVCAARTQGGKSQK
Method: Compounds were tested in a calcium flux assay using transfected HEK293 cells stably expressing either human GPR40 or rat GPR40. Human GPR40 expressing cells were cultured in DMEM-High Glucose media supplemented with 10% fetal bovine serum, 1× L-Glutamine, 1× Penicillin/Streptomycin and 500 μg/mL G418. Rat GPR40 expressing cells were cultured in DMEM-High Glucose media supplemented with 10% fetal bovine serum and 1 μg/mL puromycin. Cells were plated into poly-D-lysine coated 384-well plates and cultured overnight in a 37° C. humidified tissue culture incubator under 5% CO2/[…] atmosphere. On the day of the experiment, the culture media was replaced with assay buffer (HBSS, 20 mM HEPES, 0.1% BSA) and the cells incubated at 37° C. for 1 h. Calcium-sensitive fluorescent dye (Fluo 8 No-Wash Calcium Dye, ABD Bioquest) was then added and the cells incubated for another 30 min at 37° C. followed by 15 min at room temperature while protected from the light. The cell plate and a plate of diluted compounds of Formula (III) were loaded into a fluorescent plate reader that added compounds onto the cells while measuring the fluorescence intensity of each well. The plate reader recorded fluorescence intensity at 1 second intervals for 8 min and provided the data for analysis in an Excel format. EC50 values were calculated using Prism (GraphPad) software.

| Structure (SMILES) | EC50 |
| --- | --- |
| COc1ccc(F)c(-n2nnc(COc3cccc([C@@H](CC(=O)O)C4CC4)c3)c2-c2ccc(C)s2)c1 [Cpd 88, (3S)-3-cyclopropyl-3-[3-[[1-(2-fluoro-5-methoxy-phenyl)-5-(5-methyl-2-thienyl)triazol-4-yl]methoxy]phenyl]propanoic acid] | 24 nM and 23 nM |
| COc1ccc(F)c(-n2nnc(CCc3cccc([C@@H](CC(=O)O)C4CC4)c3)c2C2CC2)c1 [Cpd 79, (3S)-3-cyclopropyl-3-[3-[2-[5-cyclopropyl-1-(2-fluoro-5-methoxy-phenyl)triazol-4-yl]ethyl]phenyl]propanoic acid] | 103 nM |
| COc1cc(-n2ncc(COc3cccc([C@@H](CC(=O)O)C4CC4)c3)c2C2CC2)c(F)cn1 [Cpd 70, (3S)-3-cyclopropyl-3-[3-[[5-cyclopropyl-1-(5-fluoro-2-methoxy-4-pyridyl)pyrazol-4-yl]methoxy]phenyl]propanoic acid] | 16 nM |
| COc1ccc(F)c(-n2nnc(COc3cccc([C@@H](CC(=O)O)C4CC4)c3)c2OC2CCCC2)c1 [Cpd 67, (3S)-3-[3-[[5-(cyclopentoxy)-1-(2-fluoro-5-methoxy-phenyl)triazol-4-yl]methoxy]phenyl]-3-cyclopropyl-propanoic acid] | 6 nM and 10 nM (2×) |
| COc1ccc(F)c(-n2nnc(COc3cccc([C@@H](CC(=O)O)C4CC4)c3)c2C2=CCCC2(C)C)c1 [Cpd 86, (3S)-3-cyclopropyl-3-[3-[[5-(5,5-dimethylcyclopenten-1-yl)-1-(2-fluoro-5-methoxy-phenyl)triazol-4-yl]methoxy]phenyl]propanoic acid] | 4 nM and 2 nM |
| COc1ccc(F)c(-n2nnc(COc3cccc([C@@H](CC(=O)O)C4CC4)c3)c2N2CC3(CCC3)C2)c1 [Cpd 68, (3S)-3-[3-[[5-(6-azaspiro[3.3]heptan-6-yl)-1-(2-fluoro-5-methoxy-phenyl)triazol-4-yl]methoxy]phenyl]-3-cyclopropyl-propanoic acid] | 7 nM and 12 nM and 11 nM |
| COc1ccc(F)c(-n2ncc(COc3cc(C(CC(=O)O)C4CC4)ccn3)c2C2=CCCC2(C)C)c1 (centres unmarked) [Cpd 65, 3-cyclopropyl-3-[2-[[5-(5,5-dimethylcyclopenten-1-yl)-1-(2-fluoro-5-methoxy-phenyl)pyrazol-4-yl]methoxy]-4-pyridyl]propanoic acid] | 1 nM |
| COc1ccc(F)c(-n2ncc(COc3cc(C(CC(=O)O)C4CC4)c(Cl)cn3)c2C2=CCCC2(C)C)c1 (centres unmarked) [Cpd 71, 3-[5-chloro-2-[[5-(5,5-dimethylcyclopenten-1-yl)-1-(2-fluoro-5-methoxy-phenyl)pyrazol-4-yl]methoxy]-4-pyridyl]-3-cyclopropyl-propanoic acid] | 24 nM |
| COc1ccc(F)c(-n2nnc(COc3cccc([C@@H](CC(=O)O)C4CC4)c3)c2C2CC2)c1 [Cpd 85, (3S)-3-cyclopropyl-3-[3-[[5-cyclopropyl-1-(2-fluoro-5-methoxy-phenyl)triazol-4-yl]methoxy]phenyl]propanoic acid] | 65 nM and 63 nM |
| COc1ccc(F)c(-n2ncc(CCc3cccc(C(CC(=O)O)C4CC4)c3)c2C2CC2)c1 (centres unmarked) [Cpd 77, 3-cyclopropyl-3-[3-[2-[5-cyclopropyl-1-(2-fluoro-5-methoxy-phenyl)pyrazol-4-yl]ethyl]phenyl]propanoic acid] | 66 nM |
| COc1ccc(F)c(-n2ncc(COc3cccc([C@@H](CC(=O)O)C4CC4)c3)c2C2CC2)c1 [Cpd 69, (3S)-3-cyclopropyl-3-[3-[[5-cyclopropyl-1-(2-fluoro-5-methoxy-phenyl)pyrazol-4-yl]methoxy]phenyl]propanoic acid] | 15 nM and 21 nM and 17 nM |
| COc1ccc(F)c(-n2nnc(COc3cccc([C@@H](CC(=O)O)C4CC4)c3)c2C=C(C)C)c1 [Cpd 84, (3S)-3-cyclopropyl-3-[3-[[1-(2-fluoro-5-methoxy-phenyl)-5-(2-methylprop-1-enyl)triazol-4-yl]methoxy]phenyl]propanoic acid] | 38 nM and 31 nM and 37 nM (2×) |

Continued, values first:

| EC50 | Structure (SMILES) |
| --- | --- |
| 60 nM | COc1ccc(F)c(-n2nnc(COc3cc([C@H](CC(=O)O)C4CC4)ccn3)c2C2=CCCC2(C)C)c1 [Cpd 75, (3R)-3-cyclopropyl-3-[2-[[5-(5,5-dimethylcyclopenten-1-yl)-1-(2-fluoro-5-methoxy-phenyl)triazol-4-yl]methoxy]-4-pyridyl]propanoic acid] |
| 1 nM | COc1ccc(F)c(-n2nnc(COc3cc(C(CC(=O)O)C4CC4)ccn3)c2C2=CCCC2(C)C)c1 (racemic) [Cpd 63, 3-cyclopropyl-3-[2-[[5-(5,5-dimethylcyclopenten-1-yl)-1-(2-fluoro-5-methoxy-phenyl)triazol-4-yl]methoxy]-4-pyridyl]propanoic acid] |
| 1 nM | COc1ccc(F)c(-n2nnc(COc3cc([C@@H](CC(=O)O)C4CC4)ccn3)c2C2=CCCC2(C)C)c1 [Cpd 64, (3S)-3-cyclopropyl-3-[2-[[5-(5,5-dimethylcyclopenten-1-yl)-1-(2-fluoro-5-methoxy-phenyl)triazol-4-yl]methoxy]-4-pyridyl]propanoic acid] |
| 24 nM and 45 nM and 39 nM | COc1ccc(F)c(-n2cc(COc3cccc([C@@H](CC(=O)O)C4CC4)c3)cn2)c1 [Cpd 72, (3S)-3-cyclopropyl-3-[3-[[1-(2-fluoro-5-methoxy-phenyl)pyrazol-4-yl]methoxy]phenyl]propanoic acid] |
| 27 nM | COc1ccc(F)c(-n2ncc(COc3cccc([C@@H](CC(=O)O)C4CC4)c3)c2N2CCOCC2)c1 [Cpd 73, (3S)-3-cyclopropyl-3-[3-[[1-(2-fluoro-5-methoxy-phenyl)-5-morpholino-pyrazol-4-yl]methoxy]phenyl]propanoic acid] |
| 85 nM and 68 nM | COc1ccc(F)c(-n2cnc(COc3cccc([C@@H](CC(=O)O)C4CC4)c3)c2C2=CCCC2(C)C)c1 [Cpd 87, (3S)-3-cyclopropyl-3-[3-[[5-(5,5-dimethylcyclopenten-1-yl)-1-(2-fluoro-5-methoxy-phenyl)imidazol-4-yl]methoxy]phenyl]propanoic acid] |
| 7 nM and 6 nM | COc1ccc(F)c(-n2nnc(COc3cccc([C@@H](CC(=O)O)C4CC4)c3)c2CC(C)C)c1 [Cpd 83, (3S)-3-cyclopropyl-3-[3-[[1-(2-fluoro-5-methoxy-phenyl)-5-isobutyl-triazol-4-yl]methoxy]phenyl]propanoic acid] |
| 121 nM and 60 nM | COc1ccc(F)c(-n2ncc(COc3cccc([C@@H](CC(=O)O)C4CC4)c3)c2-c2ccc(C)s2)c1 [Cpd 94, (3S)-3-cyclopropyl-3-[3-[[1-(2-fluoro-5-methoxy-phenyl)-5-(5-methyl-2-thienyl)pyrazol-4-yl]methoxy]phenyl]propanoic acid] |
| 47 nM and 36 nM | COc1ccc(F)c(-n2nnc(COc3cccc([C@@H](CC(=O)O)C4CC4)c3)c2OC(C)C)c1 [Cpd 98, (3S)-3-cyclopropyl-3-[3-[[1-(2-fluoro-5-methoxy-phenyl)-5-isopropoxy-triazol-4-yl]methoxy]phenyl]propanoic acid] |
| 136 nM and 132 nM | COc1ccc(F)c(-n2cnc(COc3cccc([C@@H](CC(=O)O)C4CC4)c3)c2CC(C)C)c1 [Cpd 93, (3S)-3-cyclopropyl-3-[3-[[1-(2-fluoro-5-methoxy-phenyl)-5-isobutyl-imidazol-4-yl]methoxy]phenyl]propanoic acid] |
| 11 nM and 9 nM | COc1ccc(F)c(-n2ncc(COc3cccc([C@@H](CC(=O)O)C4CC4)c3)c2C=C(C)C)c1 [Cpd 89, (3S)-3-cyclopropyl-3-[3-[[1-(2-fluoro-5-methoxy-phenyl)-5-(2-methylprop-1-enyl)pyrazol-4-yl]methoxy]phenyl]propanoic acid] |
| 14 nM | COc1ccc(F)c(-n2nnc(COc3cccc([C@@H](CC(=O)O)C4CC4)c3)c2N2CCCCC2)c1 [Cpd 44, (3S)-3-cyclopropyl-3-[3-[[1-(2-fluoro-5-methoxy-phenyl)-5-(1-piperidyl)triazol-4-yl]methoxy]phenyl]propanoic acid] |
| 2 nM and 1 nM | COc1ccc(F)c(-n2ncc(COc3cccc([C@@H](CC(=O)O)C4CC4)c3)c2C2=CCCC2(C)C)c1 [Cpd 66, (3S)-3-cyclopropyl-3-[3-[[5-(5,5-dimethylcyclopenten-1-yl)-1-(2-fluoro-5-methoxy-phenyl)pyrazol-4-yl]methoxy]phenyl]propanoic acid] |
| 69 nM | COc1ccc(F)c(-n2nnc(COc3cc(C(CC(=O)O)C4CC4)c(Cl)cn3)c2C2=CCCC2(C)C)c1 (centres unmarked) [Cpd 78, 3-[5-chloro-2-[[5-(5,5-dimethylcyclopenten-1-yl)-1-(2-fluoro-5-methoxy-phenyl)triazol-4-yl]methoxy]-4-pyridyl]-3-cyclopropyl-propanoic acid] |
| 13 nM and 8 nM | COc1ccc(F)c(-n2nnc(COc3cccc([C@@H](CC(=O)O)C4CC4)c3)c2OC2CCCCC2)c1 [Cpd 97, (3S)-3-[3-[[5-(cyclohexoxy)-1-(2-fluoro-5-methoxy-phenyl)triazol-4-yl]methoxy]phenyl]-3-cyclopropyl-propanoic acid] |
| 273 nM | COc1ccc(F)c(-n2nnc(COc3cccc([C@@H](CC(=O)O)C4CC4)c3)c2N2CCOCC2)c1 [Cpd 80, (3S)-3-cyclopropyl-3-[3-[[1-(2-fluoro-5-methoxy-phenyl)-5-morpholino-triazol-4-yl]methoxy]phenyl]propanoic acid] |
| 86 nM and 83 nM | COc1ccc(F)c(-n2ncc(COc3cccc([C@@H](CC(=O)O)C4CC4)c3)c2Br)c1 [Cpd 90, (3S)-3-[3-[[5-bromo-1-(2-fluoro-5-methoxy-phenyl)pyrazol-4-yl]methoxy]phenyl]-3-cyclopropyl-propanoic acid] |
